IC50 data for 56 compounds are collected here from US20250170126A1 (MITSUBISHI TANABE PHARMA CORPORATION, priority 2022, published 2025).

Structures are written as SMILES. pIC50: −log10 of the molar value.

Sequence of Human B0AT1 (Q695T7 whole entry): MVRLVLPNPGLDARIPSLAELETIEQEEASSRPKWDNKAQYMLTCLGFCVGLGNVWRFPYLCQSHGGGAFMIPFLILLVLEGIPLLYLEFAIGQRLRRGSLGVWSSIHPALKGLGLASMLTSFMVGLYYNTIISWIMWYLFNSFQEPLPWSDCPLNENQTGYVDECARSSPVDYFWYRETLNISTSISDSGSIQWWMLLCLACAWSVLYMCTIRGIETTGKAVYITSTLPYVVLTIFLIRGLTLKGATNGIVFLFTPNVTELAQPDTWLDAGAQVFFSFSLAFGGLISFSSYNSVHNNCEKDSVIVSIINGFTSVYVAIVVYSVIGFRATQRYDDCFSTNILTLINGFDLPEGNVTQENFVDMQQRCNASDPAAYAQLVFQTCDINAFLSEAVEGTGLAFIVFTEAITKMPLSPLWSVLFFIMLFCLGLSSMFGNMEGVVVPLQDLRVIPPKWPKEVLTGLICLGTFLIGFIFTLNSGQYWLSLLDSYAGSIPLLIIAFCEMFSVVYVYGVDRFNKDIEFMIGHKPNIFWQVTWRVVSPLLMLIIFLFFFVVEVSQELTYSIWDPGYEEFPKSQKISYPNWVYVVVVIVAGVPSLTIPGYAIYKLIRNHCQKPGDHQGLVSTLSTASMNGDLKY

This experiment has as its target Human B0AT1 (Homo sapiens (Human), UniProt Q695T7). The experiment in a line: hB0AT1 inhibitory test (phenylalanine uptake). The format is cell-based. The note with it: Human B0AT1 stable expression CHO cells; [3H]-L-phenylalanine uptake, phenylalanine 0.25 mM. How it is done: A test compound dissolved in dimethyl sulfoxide (DMSO) was added to a 96 well plate for solid phase radioactivity measurement containing a scintillator at the bottom of the well (final concentration of DMSO 0.5%). DMSO alone as a control and DMSO containing N-(4-bromophenyl)-3,5-dichloro-2-hydroxybenzamide (final concentration […]) for the is measurement of B0AT1 non-specific uptake were similarly added at 0.5 μL per well. Human B0AT1 stable expression CHO cells suspended in a buffer (buffer containing 96 mM sodium chloride, 2 mM potassium chloride, 1.8 mM calcium chloride, 1 mM magnesium chloride, 0.01% bovine serum albumin, and 10 mM 2-[4-(2-hydroxyethyl)-1-piperazinyl]ethanesulfonic acid) were added by 90 μL to 75000 cells/well. After standing at ordinary temperature for 30 min or longer, the cells were subjected to a phenylalanine uptake experiment. A buffer containing L-phenylalanine and [3,4,5-3H]-L-phenylalanine was added by 10 μL per well (final concentration of phenylalanine 0.25 mM), and the radioactivity of the plate bottom surface at ordinary temperature was measured with a scintillation counter over time, and the radioactivity value after 100 to 200 min was analyzed. A value obtained by subtracting the B0AT1 non-specific uptake from the control uptake was taken as 100%, and the concentration necessary for each test compound to achieve 50% inhibition (IC50 value) was determined by nonlinear regression using a logistic model.
By pIC50 is commonly meant the IC50 on a negative log10 scale, so that one unit is a factor of ten. `CO[C@H]1CCN(C(=O)CNC(=O)/C=C/c2ccc(C(F)(F)F)cc2)C1` [I-60]: the pIC50 is 6.04. As for `Cc1nc2c(s1)CN(C(=O)CNC(=O)/C=C/c1ccc(C(F)(F)F)cc1)C2` [I-61], the figure is 7.09. In turn, `O=C(/C=C/c1ccc(C(F)(F)F)cc1)NCC(=O)N1Cc2ncsc2C1` [I-62] showed a pIC50 of 7.11. As for `O=C(/C=C/c1ccc(C(F)(F)F)cc1)NCC(=O)N1Cc2nc[nH]c2C1` [I-63], the figure is 6.79; as for `O=C(/C=C/c1ccc(C(F)(F)F)cc1)NCC(=O)N1CCc2nccn2CC1` [I-64], 6.71; as for `O=C(/C=C/c1ccc(C(F)(F)F)cc1)NCC(=O)N1Cc2cccnc2C1` [I-65], 7.15. `Cn1ncc2c1CN(C(=O)CNC(=O)/C=C/c1ccc(C(F)(F)F)cc1)C2` [I-66] showed a pIC50 of 6.91. In turn, `Cn1cnc2c1CN(C(=O)CNC(=O)/C=C/c1ccc(C(F)(F)F)cc1)C2` [I-67] gave a negative logarithm of the IC50 (pIC50) of 6.85. The pIC50 values of the last two compounds are within 0.2 log units of each other. For `O=C(/C=C/c1ccc(C(F)(F)F)cc1)NCC(=O)N1Cc2cncnc2C1` [I-68], the pIC50 was 7.24. Compared with the last compound, the pIC50 is 0.39 log units higher. Then `Cc1noc([C@@H]2CCN(C(=O)CNC(=O)/C=C/c3ccc(C(F)(F)F)cc3)C2)n1` [I-69], with 5.83; and `Cn1cc2c(n1)CN(C(=O)CNC(=O)/C=C/c1ccc(C(F)(F)F)cc1)C2` [I-70], with 6.87; and `O=C(/C=C/c1ccc(C(F)(F)F)cc1)NCC(=O)N1CCC(c2cccnc2)C1` (centres unmarked) [I-71], with 5.87. As for `O=C(/C=C/c1ccc(C(F)(F)F)cc1)NCC(=O)N1CCCn2ncnc2C1` [I-72], the figure is 6.50; as for `O=C(/C=C/c1ccc(C(F)(F)F)cc1)NCC(=O)N1CCC(n2cccn2)CC1` [I-73], 6.64; as for `O=C(/C=C/c1ccc(C(F)(F)F)cc1)NCC(=O)N1CCCC(n2cccn2)C1` (centres unmarked) [I-74], 5.88. As for `O=C(/C=C/c1ccc(C(F)(F)F)cc1)NCC(=O)N1CCc2nc[nH]c2C1` [I-75], the figure is 7.00; as for `O=C(/C=C/c1ccc(C(F)(F)F)cc1)NCC(=O)N1CCc2[nH]ncc2C1` [I-76], 7.28. As to `Cn1ncc2c1CCN(C(=O)CNC(=O)/C=C/c1ccc(C(F)(F)F)cc1)C2` [I-77], the negative-log IC50 (pIC50) was 7.15. On to `O=C(/C=C/c1ccc(C(F)(F)F)cc1)NCC(=O)N1CCc2ncncc2C1` [I-78], for which the negative logarithm of the IC50 (pIC50) was 7.25. `Cn1nc2n(c1=O)CCN(C(=O)CNC(=O)/C=C/c1ccc(C(F)(F)F)cc1)C2` [I-79] showed a negative logarithm of the IC50 (pIC50) of 7.29. Then `O=C(/C=C/c1ccc(C(F)(F)F)cc1)NCC(=O)N1CCn2nncc2C1` [I-80], with 7.38; and `O=C(/C=C/c1ccc(C(F)(F)F)cc1)NCC(=O)N1CCc2n[nH]c(=O)cc2C1` [I-81], with 7.28. As for `Cn1cc2c(n1)CCN(C(=O)CNC(=O)/C=C/c1ccc(C(F)(F)F)cc1)C2` [I-82], the figure is 7.19. `COCC(C)N(Cc1ccccn1)C(=O)CNC(=O)/C=C/c1ccc(C(F)(F)F)cc1` (centres unmarked) [I-83] had a negative-log IC50 (pIC50) of 7.11. As for `O=C(/C=C/c1ccc(C(F)(F)F)cc1)NCC(=O)N1CCc2cncnc2C1` [I-84], the figure is 7.27. Compound `O=C(/C=C/c1ccc(C(F)(F)F)cc1)NCC(=O)N(CCO)Cc1ccccn1` [I-85] gave a negative logarithm of the IC50 (pIC50) of 6.73.

As for `O=C(/C=C/c1ccc(C(F)(F)F)cc1)NCC(=O)N1CCCn2nccc21` [I-86], the pIC50 is 7.64. As for `O=C(/C=C/c1ccc(C(F)(F)F)cc1)NCC(=O)N1CCCc2ccccc21` [I-87], the figure is 6.91; as for `O=C(/C=C/c1ccc(OC(F)F)cc1)NCC(=O)N1CCn2nccc2C1` [I-89], 7.03. The compound `COc1nccc2c1CCN(C(=O)CNC(=O)/C=C/c1ccc(C(F)(F)F)cc1)C2` [I-90] gave a pIC50 of 7.64. `COc1nccc2c1CN(C(=O)CNC(=O)/C=C/c1ccc(C(F)(F)F)cc1)CC2` [I-91] had a pIC50 of 7.44. Compared with the last compound, the pIC50 is 0.20 log units lower.

Regarding `COc1cc2c(cn1)CN(C(=O)CNC(=O)/C=C/c1ccc(C(F)(F)F)cc1)CC2` [I-92], the pIC50 is 7.70. The compound `O=C(/C=C/c1ccc(C(F)(F)F)cc1)NCC(=O)N1CCn2nccc2C1` [I-93] showed a negative logarithm of the IC50 (pIC50) of 7.51. `COc1ccc2c(n1)CN(C(=O)CNC(=O)/C=C/c1ccc(C(F)(F)F)cc1)CC2` [I-94] had a pIC50 of 7.40. Then `O=C(/C=C/c1ccc(C(F)(F)F)cc1)NCC(=O)N1CCn2ncc(Br)c2C1` [I-96], with 8.00; and `CC1Cn2ncnc2CN1C(=O)CNC(=O)/C=C/c1ccc(C(F)(F)F)cc1` (centres unmarked) [I-97], with 6.40; and `O=C(/C=C/c1ccc(C(F)(F)F)cc1)NCC(=O)N1CCc2[nH]nnc2C1` [I-98], with 7.11. Then `O=C(/C=C/c1ccc(C(F)(F)F)cc1)NCC(=O)N1CCc2nnccc2C1` [I-99], with 7.19.

For `Cn1nnc2c1CCN(C(=O)CNC(=O)/C=C/c1ccc(C(F)(F)F)cc1)C2` [I-100], the pIC50 is 7.10. As for `CN1CCN(C(=O)CNC(=O)/C=C/c2ccc(-c3ccccc3)cc2)CC1` [I-103, (E)-N-[2-(4-methylpiperazin-1-yl)-2-oxoethyl]-3-(4-phenylphenyl) prop-2-enamide], the figure is 7.51.

`CN(C)C(=O)CNC(=O)/C=C/c1ccc(C(F)(F)F)cc1` [I-104] gave a negative-log IC50 (pIC50) of 5.69. `CC(C)c1ccc(/C=C/C(=O)NCC(=O)N2CCN(C)CC2)cc1` [I-106]: the pIC50 is 6.56. As for `Cc1nc(-c2ccc(/C=C/C(=O)NCC(=O)N3CCN(C)CC3)cc2)no1` [I-107], the figure is 5.94. For the compound `CCCOc1ccc(/C=C/C(=O)NCC(=O)N2CCN(C)CC2)cc1` [I-108], the pIC50 was 6.98. As for `CN1CCN(C(=O)CNC(=O)/C=C/c2ccc(OCC(F)(F)C(F)F)cc2)CC1` [I-109], the figure is 6.57; as for `CN1CCN(C(=O)CNC(=O)/C=C/c2ccc(C3CC3)cc2)CC1` [I-110], 7.01.

In turn, `CN1CCN(C(=O)CNC(=O)/C=C/c2ccc(-c3cccnc3)cc2)CC1` [I-111] gave a pIC50 of 6.33. As for `CN1CCN(C(=O)CNC(=O)/C=C/c2ccc(OC(F)(F)F)cc2)CC1` [I-112], the pIC50 is 7.25.

`CCCCOc1ccc(/C=C/C(=O)NCC(=O)N2CCN(C)CC2)cc1` [I-113] gave a pIC50 of 6.75. This pIC50 lies 0.50 log units lower than the previous one. As for `CN1CCN(C(=O)CNC(=O)/C=C/c2ccc(OCC3CC3)cc2)CC1` [I-114], the figure is 6.03.

`CN1CCN(C(=O)CNC(=O)/C=C/c2ccc(C3CCC3)cc2)CC1` [I-116] showed a pIC50 of 7.41. As for `CCOc1ccc(/C=C/C(=O)NCC(=O)N2CCN(C)CC2)cc1` [I-117], the figure is 6.70; as for `CN1CCN(C(=O)CNC(=O)/C=C/c2ccc(OC(F)(F)F)cc2)CC1=O` [I-118], 6.86; as for `CC1CN(C)CCN1C(=O)CNC(=O)/C=C/c1ccc(C(F)(F)F)cc1` (centres unmarked) [I-119, (E)-N-[2-(2,4-dimethylpiperazin-1-yl)-2-oxoethyl]-3-[4-(trifluoromethyl)phenyl]prop-2-enamide], 7.52. Consider `Cc1nnc([C@H]2CN(C)CCN2C(=O)CNC(=O)/C=C/c2ccc(C(F)(F)F)cc2)o1` [I-121], for which the negative logarithm of the IC50 (pIC50) is 7.09. Compared with the last compound, the pIC50 is 0.43 log units lower.

Turning to `CN1[C@@H]2CC[C@H]1CN(C(=O)CNC(=O)/C=C/c1ccc(C(F)(F)F)cc1)C2` [I-122], the pIC50 is 6.19.
